Source: US5298621A, “Oligopeptide derivatives of ipoxantine endowed with immunomodulating activity and pharmaceutical compositions containing same” (Sigma-Tau Industrie Farmaceutiche Riunite S.p.A., priority 1990, dated 1994)

Experiments:
Klebsiella oxytoca = experiment: Protective effect in immunodepressed mice infected with Klebsiella oxytoca; type: in vivo; settings: 25 mg/kg/day i.p. day -5 to -1, versus 44% mortality in the control group
Description: Test 2 Assessment of the protective effect induced by ST 657, ST 733, ST 754 and ST 789 on immunodepressed mice experimentally infected.
The immunosuppressor (cyclophosphamide) was administered i.p. in 0.2 mL of sterile saline, 100 mg/kg, 5 days before the infective challenge.
Compounds ST 733 and ST 754 (relevant data not shown in the tables) were administered i.p. (25 mg/kg/day) from day -5 (cyclophosphamide administration day) to day -1 (challenge at day 0) and tested utilizing Klebsiella oxytoca as infectious agent.

splenocytes = experiment: "In vitro-ex vivo" mytogen (PHA)-induced splenocyte proliferation in mice
Description: Test 5 Assessment of the "in vitro-ex vivo" effect of ST 733 and ST 789 on the mytogen (PHA)-induced splenocyte proliferation in mice.
Male B6 D2 F1 mice (Charles River, Italy) aged 7-8 weeks (4 animals per group) were used.
PHA (phytohemagglutinine) active on T lymphocytes was used as mytogen. The mytogen was tested at three different concentrations (suboptimal, optimal, superoptimal): 0.5, 2 and 4 mcg/mL/well.
The compounds were administered i.p. 25 mg/kg/day from day -5 to day -1 (spleen excision at day 0).
The experimental procedure was conducted substantially as described by Kirchner et al, "Splenic suppressor macrophages induced in mice by injection of C. parvum", J. Immunol., 1975, 115:1212.
In particular, the cell suspensions obtained from the spleens of the animals of the same group were pooled and the cell concentration was adjusted to 5×10^6 cell/mL.
To volumes of 0.1 mL of each sample, equal volumes of the mytogen preparation were added so as to obtain the previously indicated final concentrations.
Each sample was prepared in triplicate in U-bottom microtiters. A control, to which 0.1 mL of medium was added instead of the mytogen, was also prepared. The control permits the extent of spontaneous proliferation in the absence of stimulation to be assessed.
The samples were incubated at 37° C. for 48 hours and then they were pulsed with 20 μL ^3 H-TdR (25 μCi/mL).
After 18 hours of further incubation, the cells were collected on filters and counted in a beta-counter to evaluate the incorporated radioactivity (in cpm).
The results for each sample are expressed by calculating the value of the area under the curve (AUC) obtained by plotting the values of the incorporated radioactivity (in cpm) versus the three concentrations of mytogen.
In addition to AUC, also the stimulation index (SI) is considered, that is defined as follows: [formula]

[1] = tested on: responders (thymus of C57B1/6) induced by stimulators (spleen of DBA/2); experiment: "In vitro-ex vivo" mixed lymphocyte reaction (MLR); design: species or system mice; settings: for Body weight / Spleen weight / Thymus weight / ^3 H-TdR Incorporation (cpm ± S.E.) Non stimulated responders / ^3 H-TdR Incorporation (cpm ± S.E.) Stimulated responders / Thymocytes No. (× 10^7): 25 mg/kg/day i.p. from day -5 to day -1; for stimulator splenocytes-induced proliferation of responder thymocytes (in words): comparison with ST 789; for Thymocytes No. (× 10^7): pooled samples
Description: Test 8 Assessment of the "in vitro-ex vivo" effect of ST 733, ST 754 and ST 789 on the mixed lymphocyte reaction (MLR).
Male DBA/2 mice (Charles River, Italy) aged 8 weeks were used as "stimulators" (4 animals per group); male inbred C57 B1/6 mice (Charles River, Italy) were used as "responders" (4 animals per group).
The compounds were administered i.p. from day -5 to day -1 (thymus excision of "responders" at day 0) 25 mg/kg/day.
The experimental procedure that was used is described by Hudson, L. and Hay, F. C., Practical Immunology, Blackwell Scientific Publication 290 (1980).

thymocytes = experiment: "In vitro-ex vivo" mytogen (PHA, Con A)-induced murine thymocite proliferation; design: species or system mice; settings: for Body weight / Thymus weight / Con A AUC (× 10^-3) / Con A I.S. (stimulation index) / PHA AUC (area under curve) / PHA I.S. (stimulation index) / Thymocytes No. (× 10^7): 25 mg/kg/day i.p. from day -4 to day -1; for Con A AUC (× 10^-3) / Con A I.S. (stimulation index): Con A-induced proliferation; for PHA AUC (area under curve) / PHA I.S. (stimulation index): PHA-induced proliferation; for extent of induced thymocyte proliferation (in words): comparison with ST 789; for Thymocytes No. (× 10^7): pooled samples
Description: Test 7 Assessment of the "in vitro-ex vivo" effect of ST 754, ST 785 and ST 789 on the mytogen (PHA, Con A)-induced murine thymocite proliferation.
The compounds were administered at the dose of 25 mg/kg/day from day -4 to day -1 (thymus excision at day 0). This test was conducted following the procedure described for test 5.
The Stimulation Index (S.I.) is as defined in test 5.

DTH reaction vs. SRBC = experiment: Delayed type hypersensitivity test (DTH) vs. SRBC in mice; type: in vivo
Description: Test 6 Assessment of the effect of ST 785 and ST 789 on the delayed type hypersensitivity test (DTH).
Male B6 D2 F1 mice (Charles River, Italy) aged 6, 12 and 16 weeks (8 animals per group) were used.
The compounds were administered i.p., 25 mg/kg/day from day -3 to day +3 (immunization at day 0). Immunization was carried out by s.c. injection in the upper dorsal zone of the animals of 0.2 mL of SRBC (5×10^7 cells/mL).
Four days following the sensitizing injection, the animals were administered the challenge injection to bring about the delayed hypersensibility reaction. 50 μL of SRBC solution (2×10^9 cells/mL) were injected in the left hind foot-pad of the mice. The contralateral foot-pad received an equal volume of PBS. 24 hours after the challenge injection, the animals were sacrificed by cervical dislocation. The legs were amputated and the differences in weight between the left leg (treated with the challenge injection) and the contralateral leg were evaluated.
The mean of weight differences in the legs of the animals of the same experimental group was determined; the differences in the mean values calculated for each experimental group were processed using Student's "t" test (Biostatistics in Pharmacology, loc cit.).
The experimental procedure which was used is described by Miller, T. E. et al, (1973), Immunopotentiation with BCG. Modulation of the response to sheep red blood cells. J. Cancer Inst., 51:1669.

[2] = 25 mg/kg/day i.p. from day -5 to day -1

| Compound | mortality (Klebsiella oxytoca) | Body weight [1] [g] | Spleen weight [1] [mg] | Thymus weight [1] [mg] | ^3 H-TdR Incorporation (cpm ± S.E.) Non stimulated responders [1] [cpm] | ^3 H-TdR Incorporation (cpm ± S.E.) Stimulated responders [1] [cpm] | stimulator splenocytes-induced proliferation of responder thymocytes (in words) [1] | Thymocytes No. (× 10^7) [1] | Body weight (thymocytes) [g] | Thymus weight (thymocytes) [mg] | Con A AUC (× 10^-3) (thymocytes) | Con A I.S. (stimulation index) (thymocytes) | PHA AUC (area under curve) (thymocytes) | PHA I.S. (stimulation index) (thymocytes) | extent of induced thymocyte proliferation (in words) (thymocytes) | Thymocytes No. (× 10^7) (thymocytes) | also measured |
| --- | --- | --- | --- | --- | --- | --- | --- | --- | --- | --- | --- | --- | --- | --- | --- | --- | --- |
| C[C@H](NC(=O)OCCCCCn1cnc2c(=O)[nH]cnc21)C(=O)NCC(=O)[O-].[Na+] [ST 733, N-5-(ipoxantin-9-yl) pentyloxycarbonyl L-alanyl-glycine sodium salt] | no mortality at all | 21.8 ± 0.8 | 88.7 ± 13.6 | 61.5 ± 2.7 | 163.0 | 11187 | more potent than ST 789 | 15.5 × 10^7 | – | – | – | – | – | – | – | – | Body weight (splenocytes; [2]): 23.4 ± 0.2 g; Spleen weight (splenocytes; [2]): 74.0 ± 4.0 mg; Thymus weight (splenocytes; [2]): 75.0 ± 4.0 mg; PHA AUC (area under curve, cpm versus three mytogen concentrations) (splenocytes; PHA 0.5, 2 and 4 mcg/mL/well, 25 mg/kg/day i.p. from day -5 to day -1): 160 × 10^-3; PHA I.S. (stimulation index) (splenocytes; PHA-induced proliferation, 25 mg/kg/day i.p. from day -5 to day -1): 1.82; mytogen-induced proliferation versus the controls (in words) (splenocytes; PHA, 25 mg/kg/day i.p.): remarkable increase; Splenocytes No. (× 10^7) (splenocytes; pooled samples, 25 mg/kg/day i.p. from day -5 to day -1): 14.7 × 10^7 |
| N-5-(ipoxantin-9-yl) pentyloxycarbonyl L-(alpha) aspartyl L-arginine sodium salt [ST 754] | no mortality at all | 22.3 ± 0.5 | 81.2 ± 3.3 | 57.5 ± 8.4 | 89.2 | 11011 | more potent than ST 789 | 12.9 × 10^7 | 22.9 ± 0.5 | 74.0 ± 3.4 | 78 × 10^-3 | 1.25 | 3132 | 1.12 | more potent than ST 789 | 15.4 × 10^7 | – |
| C[C@H](NC(=O)OCCCCCn1cnc2c(=O)[nH]cnc21)C(=O)N[C@@H](CCCNC(=N)N)C(=O)O [ST 785, N-5-(ipoxantin-9-yl) pentyloxycarbonyl L-alanyl-arginine] | – | – | – | – | – | – | – | – | 22.5 ± 0.4 | 73.0 ± 2.7 | 79 × 10^-3 | 1.26 | 4421 | 1.58 | more potent than ST 789 | 15.1 × 10^7 | Mean difference in weight (mg ± S.E.) between treated and untreated foot-pads (DTH reaction vs. SRBC; 25 mg/kg/day i.p. from day -3 to day +3 respect to the immunization): 22.4 ± 3.79 mg; response to the DTH test (in words) (DTH reaction vs. SRBC; 25 mg/kg/day i.p., p≤0.01): remarkably reduce |
